Earlier results on three compounds are cited in US20110251243A1, “Method and Kit for Assessing a Patient's Genetic Information, Lifestyle and Environment Conditions, and Providing a Tailored Therapeutic Regime” (priority 2005, published 2011).

The conditions of series [1]: in the majority of people.
Another series has as its system smokers. The following applies: women with at least one Taq1A allele compared to women with both common alleles.

Where two headings read alike, the source gives them in different places.

As to `CN1CCCC1c1cccnc1` (stereo not shown) [nicotine], the “share metabolized to cotinine by C-oxidation” value in series [1] is 70% to 80.
As to `CCc1c2c(nc3ccc(OC(=O)N4CCC(N5CCCCC5)CC4)cc13)-c1cc3c(c(=O)n1C2)COC(=O)[C@]3(O)CC` [Irinotecan], the chance of neutropenia in the series on patients (heterozygotes (6/7)) was 12.5%; in the series on patients (wild type (homozygous 6/6 genotype)), “roughly 0%”. In the series with patients (homozygous 7/7 genotype in UGT1A1*28), the likelihood of neutropenia was 50%. In addition, the fatality entry in the series on patients (in vivo) was “up to 5%”. The “severe diarrhoea and neutropenia, share of patients” value in the series with patients (in vivo) is listed as 20-35%.
Take `CC(NC(C)(C)C)C(=O)c1cccc(Cl)c1` (stereo not shown) [bupropion]: in the series on smokers, the “smoking status at 12 months” value is reported as “more likely to be still smoking”.
